Test results from ChEMBL document CHEMBL1909046, “DrugMatrix in vitro pharmacology data”.

What was measured:
[1] = DRUGMATRIX: Glutamate, NMDA, Phencyclidine radioligand binding (ligand: [3H] TCP); format: cell membranes, Rattus norvegicus, Wistar, Cerebral cortex, Membrane; settings: Not Active = under 50% inhibition at 10 µM
[2] = DRUGMATRIX: Phosphodiesterase PDE3 enzyme inhibition (substrate: [3H]cAMP + cAMP); format: tissue-based, Homo sapiens; settings: platelet; Not Active = under 50% inhibition at 10 µM
[3] = DRUGMATRIX: Calcium Channel Type L, Phenylalkylamine radioligand binding (ligand: [3H] (-)-Desmethoxyverapamil (D-888)); format: cell membranes, Rattus norvegicus, Wistar, Brain, Membrane; settings: Not Active = under 50% inhibition at 10 µM
[4] = DRUGMATRIX: Glutamate, NMDA, Agonism radioligand binding (ligand: [3H] CGP-39653); format: cell membranes, Rattus norvegicus, Wistar, Cerebral cortex, Membrane; settings: Not Active = under 50% inhibition at 10 µM
[5] = target: 5-hydroxytryptamine receptor 2B (Homo sapiens, UniProt P41595); format: cell membranes, CHO-K1, Membrane; note: in other assays of this panel Not Active means under 50% inhibition at 10 µM
[6] = target: Voltage-gated inwardly rectifying potassium channel KCNH2 (Homo sapiens, UniProt Q12809); settings: hek293; note: in other assays of this panel Not Active means under 50% inhibition at 10 µM
Cytochrome P450 2E1 = Cytochrome P450 2E1 (Homo sapiens, UniProt P05181); settings: bti-tn-5b1-4; note: in other assays of this panel Not Active means under 50% inhibition at 10 µM
Chain of Cytochrome P450 2E1 (P05181 whole entry): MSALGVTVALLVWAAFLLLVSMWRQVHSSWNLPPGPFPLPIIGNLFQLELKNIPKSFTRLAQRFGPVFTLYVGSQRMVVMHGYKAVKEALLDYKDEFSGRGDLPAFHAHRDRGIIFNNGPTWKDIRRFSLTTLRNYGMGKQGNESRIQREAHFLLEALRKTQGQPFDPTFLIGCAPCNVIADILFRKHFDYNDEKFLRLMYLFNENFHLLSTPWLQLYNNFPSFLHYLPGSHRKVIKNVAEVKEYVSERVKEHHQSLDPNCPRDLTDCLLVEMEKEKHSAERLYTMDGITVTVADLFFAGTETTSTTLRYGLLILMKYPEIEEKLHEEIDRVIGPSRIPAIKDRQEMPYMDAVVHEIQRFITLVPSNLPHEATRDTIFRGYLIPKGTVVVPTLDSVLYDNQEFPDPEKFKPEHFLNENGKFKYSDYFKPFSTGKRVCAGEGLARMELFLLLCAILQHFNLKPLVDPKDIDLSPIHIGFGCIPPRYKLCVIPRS

Chain of 5-hydroxytryptamine receptor 2B (P41595 whole entry): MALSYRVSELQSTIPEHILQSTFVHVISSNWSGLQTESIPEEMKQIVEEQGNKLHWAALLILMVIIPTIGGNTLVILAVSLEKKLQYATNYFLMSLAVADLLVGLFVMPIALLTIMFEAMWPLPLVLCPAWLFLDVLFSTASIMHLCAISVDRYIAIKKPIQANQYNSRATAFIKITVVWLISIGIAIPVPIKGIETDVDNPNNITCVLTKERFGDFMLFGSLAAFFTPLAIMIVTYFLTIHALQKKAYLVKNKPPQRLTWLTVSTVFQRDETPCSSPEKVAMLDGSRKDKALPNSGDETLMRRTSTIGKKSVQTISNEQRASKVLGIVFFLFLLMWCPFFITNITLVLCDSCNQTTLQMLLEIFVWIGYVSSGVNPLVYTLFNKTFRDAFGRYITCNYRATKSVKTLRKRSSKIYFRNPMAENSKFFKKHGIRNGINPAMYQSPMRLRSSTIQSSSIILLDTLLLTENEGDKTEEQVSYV
Chain of Voltage-gated inwardly rectifying potassium channel KCNH2 (Q12809 whole entry): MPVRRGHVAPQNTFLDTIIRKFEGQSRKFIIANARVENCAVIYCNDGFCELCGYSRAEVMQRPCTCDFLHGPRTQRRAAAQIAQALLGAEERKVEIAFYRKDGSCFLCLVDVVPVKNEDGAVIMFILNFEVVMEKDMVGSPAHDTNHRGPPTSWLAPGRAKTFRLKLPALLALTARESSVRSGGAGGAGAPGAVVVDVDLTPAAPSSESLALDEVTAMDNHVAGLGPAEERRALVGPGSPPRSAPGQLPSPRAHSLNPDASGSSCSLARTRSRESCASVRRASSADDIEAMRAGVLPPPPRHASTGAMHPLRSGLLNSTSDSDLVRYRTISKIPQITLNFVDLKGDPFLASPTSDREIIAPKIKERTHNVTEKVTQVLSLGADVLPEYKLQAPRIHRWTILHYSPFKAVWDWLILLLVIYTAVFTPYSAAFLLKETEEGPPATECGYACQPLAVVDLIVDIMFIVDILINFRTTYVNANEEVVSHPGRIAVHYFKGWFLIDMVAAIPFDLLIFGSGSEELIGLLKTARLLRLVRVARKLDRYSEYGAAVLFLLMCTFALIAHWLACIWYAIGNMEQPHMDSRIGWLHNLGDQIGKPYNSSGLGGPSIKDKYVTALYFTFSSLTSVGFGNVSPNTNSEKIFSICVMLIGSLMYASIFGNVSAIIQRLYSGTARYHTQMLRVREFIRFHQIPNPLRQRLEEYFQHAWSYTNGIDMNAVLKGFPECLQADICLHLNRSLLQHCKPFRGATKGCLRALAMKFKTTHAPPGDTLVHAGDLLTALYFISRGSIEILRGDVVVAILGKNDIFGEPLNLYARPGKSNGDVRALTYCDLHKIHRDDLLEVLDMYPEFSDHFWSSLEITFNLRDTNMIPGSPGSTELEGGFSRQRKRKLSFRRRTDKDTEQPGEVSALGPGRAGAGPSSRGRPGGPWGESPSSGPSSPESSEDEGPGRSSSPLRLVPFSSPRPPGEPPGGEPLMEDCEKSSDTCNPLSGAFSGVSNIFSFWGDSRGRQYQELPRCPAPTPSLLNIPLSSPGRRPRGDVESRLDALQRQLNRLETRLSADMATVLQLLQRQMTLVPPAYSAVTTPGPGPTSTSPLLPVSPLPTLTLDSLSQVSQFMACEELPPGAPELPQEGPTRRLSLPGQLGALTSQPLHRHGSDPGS

Compound	IC50 [1]	Ki [1]	IC50 [2]	Ki [2]	IC50 [3]	Ki [3]	IC50 [4]	Ki [4]	IC50 ([5]; cho-k1)	IC50 [6]	Ki [6]	IC50 (Cytochrome P450 2E1)	Ki (Cytochrome P450 2E1)	IC50 ([5]; read-out: IC50)	Ki ([5]; read-out: Ki)	IC50 ([3]; read-out: IC50)	Ki ([3]; read-out: Ki)	Ki ([5]; cho-k1)
CC(C)NNC(=O)c1ccncc1 [IPRONIAZID]	Not Active	Not Active	Not Active	Not Active	Not Active	Not Active	Not Active	Not Active	Not Active	Not Active	Not Active	Not Active	Not Active					
O=c1cc(N2CCOCC2)oc2c(-c3ccccc3)cccc12 [LY-294002]	Not Active	Not Active	Not Active	Not Active	Not Active	Not Active	Not Active	Not Active		Not Active	Not Active	Not Active	Not Active	36.7 µM	23.4 µM			
Nc1ccc2c3c(cccc13)C(=O)NC2=O	Not Active	Not Active	Not Active	Not Active	Not Active	Not Active	Not Active	Not Active	Not Active	Not Active	Not Active	Not Active	Not Active					
CC(C)(C)NC(=O)[C@H]1CC[C@H]2[C@@H]3CC[C@H]4NC(=O)C=C[C@]4(C)[C@H]3CC[C@]12C [FINASTERIDE]	Not Active	Not Active	Not Active	Not Active	Not Active	Not Active	Not Active	Not Active	Not Active	Not Active	Not Active	Not Active	Not Active					
CC[C@H](C)[C@H]1O[C@]2(C=C[C@@H]1C)C[C@@H]1C[C@@H](C/C=C(\C)[C@@H](O[C@H]3C[C@H](OC)[C@@H](O[C@H]4C[C@H](OC)[C@@H](O)[C@H](C)O4)[C@H](C)O3)[C@@H](C)/C=C/C=C3\CO[C@@H]4[C@H](O)C(C)=C[C@@H](C(=O)O1)[C@]34O)O2.CO[C@H]1C[C@H](O[C@H]2[C@H](C)O[C@@H](O[C@@H]3/C(C)=C/C[C@@H]4C[C@@H](C[C@]5(C=C[C@H](C)[C@@H](C(C)C)O5)O4)OC(=O)[C@@H]4C=C(C)[C@@H](O)[C@H]5OC/C(=C\C=C\[C@@H]3C)[C@]54O)C[C@@H]2OC)O[C@@H](C)[C@@H]1O [ABAMECTIN]	Not Active	Not Active	Not Active	Not Active	Not Active	Not Active	Not Active	Not Active	Not Active	Not Active	Not Active	Not Active	Not Active					
Cn1c(=O)c2[nH]cnc2n(C)c1=O.Cn1c(=O)c2[nH]cnc2n(C)c1=O.NCCN [AMINOPHYLLINE]	Not Active	Not Active	Not Active	Not Active	Not Active	Not Active	Not Active	Not Active	Not Active	Not Active	Not Active	Not Active	Not Active					
C#C[C@]1(OC(C)=O)CC[C@H]2[C@@H]3CCC4=C[C@@H](OC(C)=O)CC[C@@H]4[C@H]3CC[C@@]21C [ETHYNODIOL DIACETATE]	Not Active	Not Active	Not Active	Not Active	Not Active	Not Active	Not Active	Not Active	Not Active	Not Active	Not Active	Not Active	Not Active					
CN/C(=N\CCSCc1nc[nH]c1C)NC#N [CIMETIDINE]	Not Active	Not Active	Not Active	Not Active	Not Active	Not Active	Not Active	Not Active	Not Active	Not Active	Not Active	Not Active	Not Active					
OC(CCCN1CCCCC1)(c1ccccc1)c1ccccc1 [DIPHENIDOL]	Not Active	Not Active	Not Active	Not Active			Not Active	Not Active	Not Active	Not Active	Not Active	Not Active	Not Active			4.5 µM	4.38 µM	
CCC(=O)O[C@]1(C(=O)CCl)[C@@H](C)C[C@H]2[C@@H]3CCC4=CC(=O)C=C[C@]4(C)[C@@]3(F)[C@@H](O)C[C@@]21C [CLOBETASOL PROPIONATE]	Not Active	Not Active	Not Active	Not Active	Not Active	Not Active	Not Active	Not Active	Not Active	Not Active	Not Active	Not Active	Not Active					
CCCN(CCC)S(=O)(=O)c1ccc(C(=O)O)cc1 [PROBENECID]	Not Active	Not Active	Not Active	Not Active	Not Active	Not Active	Not Active	Not Active	Not Active	Not Active	Not Active	Not Active	Not Active					
O=C(O)CCNC(=O)c1ccccc1 [BETAMIPRON]	Not Active	Not Active	Not Active	Not Active	Not Active	Not Active	Not Active	Not Active	Not Active	Not Active	Not Active	Not Active	Not Active					
C[C@H]1O[C@@H](n2cc(F)c(=O)[nH]c2=O)[C@H](O)[C@@H]1O [DOXIFLURIDINE]	Not Active	Not Active	Not Active	Not Active	Not Active	Not Active	Not Active	Not Active	Not Active	Not Active	Not Active	Not Active	Not Active					
O=c1cnn([C@@H]2O[C@H](CO)[C@@H](O)[C@H]2O)c(=O)[nH]1 [6-AZAURIDINE]	Not Active	Not Active	Not Active	Not Active	Not Active	Not Active	Not Active	Not Active	Not Active	Not Active	Not Active	Not Active	Not Active					
COC(=O)CCc1ccc(OCC(O)CNC(C)C)cc1 (stereo unspecified) [ESMOLOL]	Not Active	Not Active	Not Active	Not Active	Not Active	Not Active	Not Active	Not Active	Not Active	Not Active	Not Active	Not Active	Not Active					
C[C@@H]1O[C@@H](O[C@@H]2C=C3CC[C@@H]4[C@H](CC[C@]5(C)[C@@H](c6ccc(=O)oc6)CC[C@]45O)[C@@]3(C)CC2)[C@H](O)[C@H](O)[C@H]1O [PROSCILLARIDIN]	Not Active	Not Active	Not Active	Not Active	Not Active	Not Active	Not Active	Not Active	Not Active	Not Active	Not Active	Not Active	Not Active					
NYSTATIN	Not Active	Not Active	Not Active	Not Active	Not Active	Not Active	Not Active	Not Active	Not Active	Not Active	Not Active	Not Active	Not Active					Not Active
C[C@@H]1C[C@H]2[C@@H]3CCC4=CC(=O)C=C[C@]4(C)[C@@]3(F)[C@@H](O)C[C@]2(C)[C@@]1(O)C(=O)CO [DEXAMETHASONE]	Not Active	Not Active	Not Active	Not Active	Not Active	Not Active	Not Active	Not Active	Not Active	Not Active	Not Active	Not Active	Not Active					
O=C(c1ccccc1C(F)(F)F)N1CCC(Cc2ccccc2)CC1	Not Active	Not Active	Not Active	Not Active	Not Active	Not Active	Not Active	Not Active		Not Active	Not Active	Not Active	Not Active	1.55 µM	0.986 µM			
Brc1c(NC2=NCCN2)ccc2nccnc12 [BRIMONIDINE]	Not Active	Not Active	Not Active	Not Active	Not Active	Not Active	Not Active	Not Active	Not Active	Not Active	Not Active	Not Active	Not Active					
C[n+]1ccccc1/C=N/O.[Cl-] [PRALIDOXIME CHLORIDE]	Not Active	Not Active	Not Active	Not Active	Not Active	Not Active	Not Active	Not Active	Not Active	Not Active	Not Active	Not Active	Not Active					
